Values of other authors as cited in patent US4652627A, “Calcitonin analogs with C-terminal D-amino acid substituents” (priority 1985, dated 1987).
Positions of bridges follow the written chain, without caps; N, C: chain ends. No end group written: not given here.

Conditions: relative to human calcitonin = 100%

**Q.** For “deletion of the entire prolinamide moiety: human calcitonin with the entire C-terminal prolinamide moiety deleted (CGNLSTCMLGTYTQDFNKFHTFPQTAIGVGA; ends and bridges not checked; cysteine pairing not given here; UniProt P01258 85-115, looked up, fragment)”, which activity is on record?
**A.** 0.12%

**Q.** With “human calcitonin (CGNLSTCMLGTYTQDFNKFHTFPQTAIGVGAP-NH2; disulfide 1-7; ends not checked; UniProt P01258 85-116, looked up) [natural 32 amino acid calcitonin of human origin with C-terminal prolinamide]” as the substance, how does the activity read?
**A.** 100%
